Results: PMC10552397 (Cell Communication and Signaling : CCS, 2023)

Key:
EFEMP1 = target: T1, EFEMP1 (Homo sapiens, UniProt Q12805); experiment: TPP-TR/RTSA, EFEMP1; type: binding
T1 construct: endogenous in cells; host or cells: HeLa wt cells
T1 sequence (Q12805 18-493): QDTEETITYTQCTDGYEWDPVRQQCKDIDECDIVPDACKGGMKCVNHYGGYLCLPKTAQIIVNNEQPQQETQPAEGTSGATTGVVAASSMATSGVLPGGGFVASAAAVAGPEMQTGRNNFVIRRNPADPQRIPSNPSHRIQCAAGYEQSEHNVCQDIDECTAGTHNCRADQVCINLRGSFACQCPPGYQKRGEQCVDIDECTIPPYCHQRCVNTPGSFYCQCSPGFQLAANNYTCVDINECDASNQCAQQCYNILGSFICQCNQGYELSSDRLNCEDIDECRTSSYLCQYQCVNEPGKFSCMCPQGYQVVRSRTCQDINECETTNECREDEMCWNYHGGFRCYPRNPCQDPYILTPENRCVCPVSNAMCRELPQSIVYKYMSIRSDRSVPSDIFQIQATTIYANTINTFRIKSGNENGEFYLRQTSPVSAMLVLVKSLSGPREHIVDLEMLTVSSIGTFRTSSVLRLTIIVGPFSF
Protocol: (§1) TPP was performed essentially as described, but with major modifications to the TMT labeling sets and statistical data analysis for TPP-TR.
(§2) Adherent cells were washed in the dish once with DPBS and harvested by Trypsin–EDTA (0.25%, Thermo Fisher Scientific, Waltham, MA, USA, #25,200,056) treatment. […]
(§3) After temperature treatment, samples were supplemented with lysis buffer (final concentrations: 0.36 U/µL benzonase, 1.5 mM MgCl2, 1 mM Na3VO4, 10 mM NaF, 2.5 mM Na4P2O7, 0.8% w/v NP-40) for 1 h on ice. […] The total protein concentration of the resulting cell extracts containing the fraction of soluble, non-denatured proteins was determined (Pierce 660 nm Protein Assay, BSA as standard). […] The two (37 °C or 50 °C) x ten (concentrations) x three (replicates) = 60 TPP-CCR samples and two (treatment and control) x ten (temperatures) x three (replicates) = 60 TPP-TR samples were analyzed by LC–MS/MS. GRASP55 was additionally quantified from the TPP-TR samples by immunoblotting as described in the respective section.
(§4) For TPP-CCR, SP3 was performed as described with slight modifications to the original protocol using on average 5 µg total protein per sample and resulting in theoretically 5 µg peptides in 22 µL 50 mM triethylammonium bicarbonate per sample. […] This volume was calculated such that the lowest two temperature samples (36.5 °C and 41.2 °C) contained 10 µg total protein on average. […]

SDC4 = target: T2, SDC4 (Homo sapiens, UniProt P31431); experiment: TPP-TR/RTSA, SDC4; type: binding
T2 construct: endogenous in cells; host or cells: HeLa wt cells
T2 sequence (P31431 19-198): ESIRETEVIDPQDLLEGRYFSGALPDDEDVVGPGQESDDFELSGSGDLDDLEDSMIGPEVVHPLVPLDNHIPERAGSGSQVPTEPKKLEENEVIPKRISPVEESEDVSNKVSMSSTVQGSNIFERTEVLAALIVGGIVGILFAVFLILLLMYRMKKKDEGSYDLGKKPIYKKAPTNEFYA
Protocol: as §1, §2, §3, §4

[1] = 100 nM vs DMSO, 6 h, HeLa wt, read-out: Mean_dTm

In the case of `CCCCCC1=C/C(=C/c2[nH]c(-c3ccc[nH]3)cc2OC)N=C1C` [Prodigiosin, prodigiosin], the ΔTm at 0.1 µM (EFEMP1; [1]) was 1.55 °C, the distancescore (EFEMP1; RTSA distance score) was 13.326 and the ΔTm at 0.1 µM (SDC4; [1]) was 0.55 °C. It also gave a distancescore (SDC4; RTSA distance score) of 10.308.
